# According to ChEMBL document CHEMBL5465560, “Selectivity Literature for EUbOPEN Chemogenomic Library” (2024):
# Key:
# [1] = target: T1, Serine/threonine-protein kinase D3 (Homo sapiens) (UniProt O94806); conditions: at 10 µM
# T1 sequence (whole entry): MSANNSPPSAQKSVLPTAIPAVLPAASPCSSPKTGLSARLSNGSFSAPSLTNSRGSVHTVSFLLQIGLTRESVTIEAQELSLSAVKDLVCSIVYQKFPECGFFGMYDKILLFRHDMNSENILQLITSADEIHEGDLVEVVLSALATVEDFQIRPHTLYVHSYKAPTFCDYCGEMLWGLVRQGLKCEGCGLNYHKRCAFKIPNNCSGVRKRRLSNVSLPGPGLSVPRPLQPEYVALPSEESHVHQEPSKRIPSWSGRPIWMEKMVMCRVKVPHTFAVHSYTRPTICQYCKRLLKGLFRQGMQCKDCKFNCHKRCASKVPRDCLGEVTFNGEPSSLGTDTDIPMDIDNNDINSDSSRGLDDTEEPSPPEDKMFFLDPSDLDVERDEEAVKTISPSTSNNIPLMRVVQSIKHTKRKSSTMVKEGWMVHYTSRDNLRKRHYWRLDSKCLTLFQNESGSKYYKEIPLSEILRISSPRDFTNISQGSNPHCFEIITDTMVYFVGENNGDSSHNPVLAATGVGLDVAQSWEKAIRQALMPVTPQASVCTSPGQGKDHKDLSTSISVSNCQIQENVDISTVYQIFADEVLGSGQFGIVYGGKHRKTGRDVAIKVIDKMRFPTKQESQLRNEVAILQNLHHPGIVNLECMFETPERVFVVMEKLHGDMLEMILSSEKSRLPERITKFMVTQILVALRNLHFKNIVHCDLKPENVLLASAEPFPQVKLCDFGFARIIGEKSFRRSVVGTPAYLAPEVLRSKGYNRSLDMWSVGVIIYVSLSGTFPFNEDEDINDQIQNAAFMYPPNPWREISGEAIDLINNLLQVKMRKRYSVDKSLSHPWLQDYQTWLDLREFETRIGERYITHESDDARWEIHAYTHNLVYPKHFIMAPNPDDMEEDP
# [2] = target: T2, Myotonin-protein kinase (Homo sapiens) (UniProt Q09013); assay: Selectivity interaction (KinomeScan (DiscoverX)) EUB0000229b DMPK; conditions: at 10 µM
# T2 sequence (whole entry): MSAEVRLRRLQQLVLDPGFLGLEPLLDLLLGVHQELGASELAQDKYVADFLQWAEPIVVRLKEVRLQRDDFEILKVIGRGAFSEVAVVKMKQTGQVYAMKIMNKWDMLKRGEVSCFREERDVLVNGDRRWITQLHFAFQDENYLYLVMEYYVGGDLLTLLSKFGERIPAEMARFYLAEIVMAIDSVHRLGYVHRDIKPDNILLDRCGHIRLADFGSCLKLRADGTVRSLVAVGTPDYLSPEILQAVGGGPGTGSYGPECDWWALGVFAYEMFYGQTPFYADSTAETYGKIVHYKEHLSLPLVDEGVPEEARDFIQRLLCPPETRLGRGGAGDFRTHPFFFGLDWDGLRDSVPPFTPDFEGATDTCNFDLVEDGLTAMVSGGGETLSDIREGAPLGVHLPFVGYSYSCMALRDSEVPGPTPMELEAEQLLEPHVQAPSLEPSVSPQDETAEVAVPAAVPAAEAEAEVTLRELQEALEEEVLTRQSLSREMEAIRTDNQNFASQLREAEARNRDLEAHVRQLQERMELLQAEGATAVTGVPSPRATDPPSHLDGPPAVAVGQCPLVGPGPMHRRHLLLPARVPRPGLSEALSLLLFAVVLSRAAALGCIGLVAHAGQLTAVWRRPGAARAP
# [3] = target: Glycogen synthase kinase-3 beta (Homo sapiens, UniProt P49841); assay: Selectivity interaction (KinomeScan (DiscoverX)) EUB0000229b GSK3B; conditions: at 10 µM
# Sequence of Glycogen synthase kinase-3 beta (P49841 whole entry, looked up): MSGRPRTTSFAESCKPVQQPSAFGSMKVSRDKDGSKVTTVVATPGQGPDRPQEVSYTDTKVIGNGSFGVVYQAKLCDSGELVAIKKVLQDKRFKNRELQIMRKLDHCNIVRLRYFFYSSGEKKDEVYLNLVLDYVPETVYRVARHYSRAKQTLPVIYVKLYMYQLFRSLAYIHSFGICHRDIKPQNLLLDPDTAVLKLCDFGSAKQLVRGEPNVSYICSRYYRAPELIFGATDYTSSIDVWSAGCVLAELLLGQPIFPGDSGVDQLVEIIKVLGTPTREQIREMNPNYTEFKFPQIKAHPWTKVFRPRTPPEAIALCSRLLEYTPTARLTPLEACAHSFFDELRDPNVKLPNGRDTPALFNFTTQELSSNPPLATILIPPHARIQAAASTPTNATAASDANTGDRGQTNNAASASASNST
# [4] = target: Calcium/calmodulin-dependent protein kinase type II subunit delta (Homo sapiens) (UniProt Q13557); assay: Selectivity interaction (KinomeScan (DiscoverX)) EUB0001079a CAMK2D; conditions: at 1 µM
# Sequence of Calcium/calmodulin-dependent protein kinase type II subunit delta (Homo sapiens) (Q13557 whole entry): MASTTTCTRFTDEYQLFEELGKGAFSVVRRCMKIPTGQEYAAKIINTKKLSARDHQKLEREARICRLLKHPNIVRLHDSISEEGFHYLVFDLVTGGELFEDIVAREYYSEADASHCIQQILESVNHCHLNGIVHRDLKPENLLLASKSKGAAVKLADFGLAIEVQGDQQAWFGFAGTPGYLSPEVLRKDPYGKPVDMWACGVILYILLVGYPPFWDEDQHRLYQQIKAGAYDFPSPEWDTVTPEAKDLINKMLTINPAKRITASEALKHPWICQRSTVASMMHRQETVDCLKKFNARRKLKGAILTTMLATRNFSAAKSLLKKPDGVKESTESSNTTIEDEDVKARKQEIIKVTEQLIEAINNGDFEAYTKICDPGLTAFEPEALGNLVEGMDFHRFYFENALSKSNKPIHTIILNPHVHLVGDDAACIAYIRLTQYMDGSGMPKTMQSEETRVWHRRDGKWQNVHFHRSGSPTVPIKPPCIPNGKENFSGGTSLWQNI
# [5] = target: Ribosomal protein S6 kinase alpha-1 (Homo sapiens, UniProt Q15418); assay: Selectivity interaction (Kinase panel (KiNativ target engagement assay in Jurkat cells)) EUB0001635a RPS6KA1; format: cell-based; conditions: Selectivity number of off-targets 0.0, Selectivity number of targets 233.0, Source Knowledge https://www.sciencedirect.com/science/article/pii/S2451945619300674?via%3Dihub, at 1 µM
# Sequence of Ribosomal protein S6 kinase alpha-1 (Q15418 whole entry): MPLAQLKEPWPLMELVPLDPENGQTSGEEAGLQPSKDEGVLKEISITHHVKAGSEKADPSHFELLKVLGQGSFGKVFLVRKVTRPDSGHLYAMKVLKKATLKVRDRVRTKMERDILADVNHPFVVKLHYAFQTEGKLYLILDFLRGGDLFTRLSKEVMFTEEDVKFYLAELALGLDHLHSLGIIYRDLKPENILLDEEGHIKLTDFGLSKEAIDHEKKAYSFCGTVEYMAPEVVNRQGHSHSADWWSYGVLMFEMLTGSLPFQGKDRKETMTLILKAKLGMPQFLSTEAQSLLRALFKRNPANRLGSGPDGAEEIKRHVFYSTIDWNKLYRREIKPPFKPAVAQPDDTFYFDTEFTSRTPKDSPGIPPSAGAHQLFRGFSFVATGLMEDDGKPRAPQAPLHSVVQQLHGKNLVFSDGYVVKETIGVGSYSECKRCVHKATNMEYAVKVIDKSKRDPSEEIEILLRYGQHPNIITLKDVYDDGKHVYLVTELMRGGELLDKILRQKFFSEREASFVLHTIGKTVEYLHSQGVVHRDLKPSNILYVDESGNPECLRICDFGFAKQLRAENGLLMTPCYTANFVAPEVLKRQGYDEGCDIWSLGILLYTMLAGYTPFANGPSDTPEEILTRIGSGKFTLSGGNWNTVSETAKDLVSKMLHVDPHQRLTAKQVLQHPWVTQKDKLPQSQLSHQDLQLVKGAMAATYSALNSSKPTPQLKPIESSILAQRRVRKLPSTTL
# [6] = target: Serine/threonine-protein kinase PAK 6 (Homo sapiens) (UniProt Q9NQU5); assay: Selectivity interaction (KinomeScan (DiscoverX)) EUB0000666a PAK6; conditions: at 10 µM
# Sequence of Serine/threonine-protein kinase PAK 6 (Homo sapiens) (Q9NQU5 whole entry, looked up): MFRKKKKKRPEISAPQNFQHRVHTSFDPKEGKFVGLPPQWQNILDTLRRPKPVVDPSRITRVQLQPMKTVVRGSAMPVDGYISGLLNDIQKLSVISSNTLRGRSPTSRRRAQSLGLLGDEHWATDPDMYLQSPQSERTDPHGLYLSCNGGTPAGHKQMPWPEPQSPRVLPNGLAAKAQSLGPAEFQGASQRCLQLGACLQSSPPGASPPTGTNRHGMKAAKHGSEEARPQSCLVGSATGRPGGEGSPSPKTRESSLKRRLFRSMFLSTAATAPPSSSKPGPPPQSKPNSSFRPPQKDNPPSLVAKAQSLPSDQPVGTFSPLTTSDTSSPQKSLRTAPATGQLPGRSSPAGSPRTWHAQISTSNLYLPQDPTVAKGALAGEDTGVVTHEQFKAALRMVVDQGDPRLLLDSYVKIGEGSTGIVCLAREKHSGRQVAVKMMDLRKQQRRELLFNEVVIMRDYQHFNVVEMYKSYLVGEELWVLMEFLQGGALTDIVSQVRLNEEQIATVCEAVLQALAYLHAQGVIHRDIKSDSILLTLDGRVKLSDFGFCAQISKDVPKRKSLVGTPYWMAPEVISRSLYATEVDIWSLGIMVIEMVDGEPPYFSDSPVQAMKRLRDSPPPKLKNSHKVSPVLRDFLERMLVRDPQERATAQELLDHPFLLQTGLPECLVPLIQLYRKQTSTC
# [7] = target: Nuclear receptor subfamily 1 group I member 2 (Homo sapiens, UniProt O75469); assay: Selectivity interaction (PXR Receptor agonist/antagonist assay: TR-FRET human recombinant ) EUB0000877a NR1I2
# Sequence of Nuclear receptor subfamily 1 group I member 2 (O75469 whole entry): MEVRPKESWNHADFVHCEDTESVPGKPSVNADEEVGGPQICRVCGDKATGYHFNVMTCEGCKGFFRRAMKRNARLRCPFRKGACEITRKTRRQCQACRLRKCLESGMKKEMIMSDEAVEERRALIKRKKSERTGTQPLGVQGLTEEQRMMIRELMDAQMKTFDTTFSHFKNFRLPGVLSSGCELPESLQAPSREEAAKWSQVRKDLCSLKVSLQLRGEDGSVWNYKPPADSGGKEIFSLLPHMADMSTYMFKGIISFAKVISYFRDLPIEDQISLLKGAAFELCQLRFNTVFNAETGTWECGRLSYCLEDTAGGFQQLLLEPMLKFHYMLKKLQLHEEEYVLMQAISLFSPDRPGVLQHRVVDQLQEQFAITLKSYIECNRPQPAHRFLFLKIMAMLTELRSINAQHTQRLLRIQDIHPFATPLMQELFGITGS
# [8] = target: T3, Sphingosine kinase 2 (Homo sapiens) (UniProt Q9NRA0); assay: Selectivity interaction (Adapta Assay) EUB0001632a SPHK2; conditions: at 10 µM
# T3 sequence (whole entry): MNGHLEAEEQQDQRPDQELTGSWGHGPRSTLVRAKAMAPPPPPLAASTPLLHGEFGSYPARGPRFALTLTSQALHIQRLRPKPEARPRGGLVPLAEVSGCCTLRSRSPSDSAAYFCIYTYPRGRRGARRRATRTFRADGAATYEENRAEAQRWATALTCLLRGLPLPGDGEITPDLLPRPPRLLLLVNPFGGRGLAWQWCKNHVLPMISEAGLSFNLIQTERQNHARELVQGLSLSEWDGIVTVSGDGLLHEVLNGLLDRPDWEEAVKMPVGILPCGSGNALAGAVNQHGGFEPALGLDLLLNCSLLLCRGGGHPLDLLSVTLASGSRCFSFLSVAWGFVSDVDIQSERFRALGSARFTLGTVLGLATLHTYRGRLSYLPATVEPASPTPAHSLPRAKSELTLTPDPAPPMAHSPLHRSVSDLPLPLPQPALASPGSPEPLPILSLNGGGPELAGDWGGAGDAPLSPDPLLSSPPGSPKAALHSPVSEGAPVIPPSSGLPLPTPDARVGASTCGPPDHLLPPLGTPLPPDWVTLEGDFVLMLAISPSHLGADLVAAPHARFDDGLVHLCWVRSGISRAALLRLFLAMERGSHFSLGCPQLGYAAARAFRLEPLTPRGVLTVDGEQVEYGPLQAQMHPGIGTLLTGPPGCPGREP
# [9] = target: Tyrosine-protein kinase SYK (Homo sapiens, UniProt P43405); assay: Selectivity interaction (Kinase panel (Invitrogen)) EUB0000639a SYK; conditions: at 200 nM
# [10] = target: Serine/threonine-protein kinase OSR1 (Homo sapiens) (UniProt O95747); assay: Selectivity interaction (KinomeScan (DiscoverX)) EUB0001049a OXSR1; conditions: at 1 µM
# Sequence of Serine/threonine-protein kinase OSR1 (Homo sapiens) (O95747 2-527 limits assumed): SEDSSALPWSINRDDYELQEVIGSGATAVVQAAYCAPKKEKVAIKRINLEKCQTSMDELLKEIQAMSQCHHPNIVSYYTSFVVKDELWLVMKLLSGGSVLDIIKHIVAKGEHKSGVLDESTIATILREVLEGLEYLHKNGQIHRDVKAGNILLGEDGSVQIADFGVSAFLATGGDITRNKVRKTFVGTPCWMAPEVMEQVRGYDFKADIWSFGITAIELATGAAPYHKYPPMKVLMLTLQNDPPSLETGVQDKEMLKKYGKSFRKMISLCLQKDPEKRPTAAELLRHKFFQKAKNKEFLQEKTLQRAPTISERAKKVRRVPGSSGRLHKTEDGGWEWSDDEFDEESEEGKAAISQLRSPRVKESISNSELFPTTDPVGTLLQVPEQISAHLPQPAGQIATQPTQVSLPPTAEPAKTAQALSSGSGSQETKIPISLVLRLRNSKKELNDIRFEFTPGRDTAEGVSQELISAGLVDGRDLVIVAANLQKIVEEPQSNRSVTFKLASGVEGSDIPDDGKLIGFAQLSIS
# [11] = system: Tyrosine-protein kinase ABL1 (Homo sapiens), P00519 [H396P]; assay: Selectivity interaction (KinomeScan (DiscoverX)) EUB0000618a ABL1; conditions: at 10 µM
smiles,measurement,setting,value
CCN(CC)CCCCNc1ncc2cc(-c3cc(OC)cc(OC)c3)c(NC(=O)NC(C)(C)C)nc2n1,% of control,[1],100%
COc1cc(N(C)c2ccnc3ccc(C(F)(F)F)cc23)cc(OC)c1OC,% binding,[2],87%
same,% binding,[3],81%
Nc1cnc(N2CCc3cc(S(=O)(=O)Nc4c(F)cc(Cl)cc4F)cc(N4CCCC4=O)c32)nc1 [TP-020n],% of control,[4],100%
C=CC(=O)Nc1ccc(C(=O)Nc2[nH]nc3c2CN(C(=O)N[C@H](CN(C)C)c2ccccc2)C3(C)C)cc1,% of engagement,[5],14.4%
O=C(NOC[C@H](O)CO)c1ccc(F)c(F)c1Nc1ccc(I)cc1F,% of control,[6],100%
CCC(=O)N1CC[C@H](Nc2ncnc3c2CN(c2cnc(OC)c(C(F)(F)F)c2)CC3)C1 [LENIOLISIB],IC50,[7],> 30 µM
Cn1cc(-n2cnc3c(NCc4nc5cc(Cl)c(Cl)cc5[nH]4)nc(N4CCOCC4)nc32)cn1,% of inhibition,[8],67.7%
CC[C@@H]1[C@H](F)C(=O)N[C@@H]1COc1nccc2cc(C(N)=O)c(OC)cc12 [ZIMLOVISERTIB],% of inhibition,[9],9.07%
COc1cc(Nc2nc(C)cc(-c3cnn4nc(OC)ccc34)n2)cc(C(F)(F)F)c1,% of control,[10],83%
O[C@H]1CC[C@H](Nc2ncc3nc(Nc4c(F)cc(F)cc4F)n([C@H]4CCOC4)c3n2)CC1,% of control,[11],31%
